Key:
VHZ (LDP3) = target: T1, VHZ (LDP3) (Homo sapiens, UniProt Q9BVJ7); assay: inhibition of pNPP hydrolysis, competitive model fit; type: biochemical
T1 sequence (Q9BVJ7 1-150): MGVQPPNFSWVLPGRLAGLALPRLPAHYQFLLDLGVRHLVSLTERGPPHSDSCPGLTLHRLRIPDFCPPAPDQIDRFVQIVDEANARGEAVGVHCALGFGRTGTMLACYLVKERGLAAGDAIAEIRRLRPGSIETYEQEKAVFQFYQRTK

SsoPTP = target: T2, SsoPTP (Saccharolobus solfataricus, UniProt Q97VZ7); assay: biochemical
T2 sequence (Q97VZ7 1-161): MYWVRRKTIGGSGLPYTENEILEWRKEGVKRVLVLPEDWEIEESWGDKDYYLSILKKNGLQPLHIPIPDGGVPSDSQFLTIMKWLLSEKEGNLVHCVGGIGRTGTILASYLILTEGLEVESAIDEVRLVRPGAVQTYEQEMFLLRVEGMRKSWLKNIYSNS

VHR [1] = target: T3, VHR (Homo sapiens, UniProt P51452); assay: biochemical
T3 sequence (P51452 whole entry): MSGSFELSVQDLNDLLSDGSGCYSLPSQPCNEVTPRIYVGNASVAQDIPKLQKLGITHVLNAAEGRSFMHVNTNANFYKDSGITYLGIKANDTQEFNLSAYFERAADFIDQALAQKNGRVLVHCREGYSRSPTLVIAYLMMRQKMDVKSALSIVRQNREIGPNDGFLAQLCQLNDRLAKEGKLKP

PTP1B = PTP1B (Homo sapiens, UniProt P18031); assay: biochemical
PTP1B, sequence (P18031 1-321 limits assumed): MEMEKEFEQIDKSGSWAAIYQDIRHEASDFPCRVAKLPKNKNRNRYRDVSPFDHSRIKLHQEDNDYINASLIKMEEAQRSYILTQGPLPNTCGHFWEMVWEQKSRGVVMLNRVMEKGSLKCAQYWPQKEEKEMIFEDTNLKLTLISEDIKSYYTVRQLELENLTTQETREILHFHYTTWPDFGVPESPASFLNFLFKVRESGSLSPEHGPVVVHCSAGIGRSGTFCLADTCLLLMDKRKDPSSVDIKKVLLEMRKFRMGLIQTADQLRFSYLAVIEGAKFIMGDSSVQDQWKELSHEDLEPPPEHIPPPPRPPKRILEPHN

VHR [2] = target: T3, VHR; assay: pre-steady-state burst kinetics, stopped flow at […] nm; type: biochemical; conditions: read-out: KS

Row | Compound | Ki (VHZ (LDP3)) | also measured
1 | NC(CO)(CO)CO [Tris] | 88 ± 9 mM | 
2 | O=S(=O)(O)CCN1CCN(CCO)CC1 [HEPES] | 26 ± 3 mM | 
3 | O=P(O)(O)O [Inorganic phosphate] | 0.67 ± 0.05 mM | Ki (YopH): 4.4 ± 0.2 mM; Ki (SsoPTP): 0.54 ± 0.42 mM; Ki (VHR [1]): 0.7 ± 0.3 mM; Ki (PTP1B): 3.7 ± 0.1 mM
4 | O=C(O)CN(CCN(CC(=O)O)CC(=O)O)CC(=O)O [EDTA] | 22 ± 2 mM | 
5 | O=[N+]([O-])c1ccc(OP(=O)(O)O)cc1 [pNPP] |  | Kd (VHR [2]): 11.8 mM
6 | O=S(=O)(O)O [Sulfate] | 4.6 ± 0.3 mM | 
7 | [O]=[V]([OH])([OH])[OH] [Vanadate] | 0.0027 ± 0.0003 mM | 

From paper PMC3856698 (Biochemistry, 2013)
